Type in all cases: in vivo, mouse
One experiment relates to plasmin. In words: Plasmin activity in BM plasma, chromogenic assay. As to conditions: WT mice. The procedure:
To study the role of the plasminogen proteinase system with its plasminogen activators tPA and uPA, and active plasmin in stem/progenitor cell mobilization, mice lacking plasminogen (Plg^−/−), tPA (tPA^−/−), uPA (uPA^−/−) and both activators (tPA^−/−uPA^−/−) were used.^(17, 18) Age- and sex-matched mice were kept in IVC cages. Mobilization was induced either via a single sublethal injection i.v. of the myeloablative agent 5-fluorouracil (5-FU, 200-250 mg/kg), or via administration s.c. of recombinant human G-CSF (Filgrastim, Amgen, 200 μg/kg/d) for five consecutive days.^(12) Peripheral blood (PB) samples were obtained by retro-orbital bleeding under light anesthesia. Full blood counts were determined on the Abbott Cell Dyn 1300 hemocytometer. The number of mobilized hematopoietic progenitor cells (HPCs) in the circulation was determined via methylcellulose-based CFU-C assays (MethoCult, Stem Cell Technologies), per 10^5 peripheral blood mononuclear cells (PB MNCs).^(12) The number of mobilized hematopoietic stem cells (HSCs) in the circulation was quantified via splenic colony-forming assays (CFU-S), and evaluated for long-term engraftment via transplantation into lethally irradiated syngeneic wild-type recipients (9.5 Gy total body irradiation). […]

In the next experiment the test system is sKitL. In words: sKitL levels in BM plasma (ELISA). The conditions noted are these: WT mice. The procedure:
BM extracellular fluid (BM plasma) from mice was obtained as described previously (Petit et al. (2002), Nat. Immunol. 3:687-94). BM plasma from healthy volunteers was obtained by using the first 10 ml of collection via puncture in the iliac crest under local anesthesia, and immediate anti-coagulation with EDTA. Protein extraction on BM cells was performed as described (Heymans et al. (1999), Nat. Med. 5:1135-42). Murine sKitL and SDF1α protein levels were quantified using commercial available ELISA (R&D Systems, Abingdon, UK). Murine plasminogen, and murine and human suPAR were quantified by home-made ELISA (Heymans et al. (1999), Nat. Med. 5:1135-42; Sier et al. (2004), Thromb. Haemost. 91:403-11). Lyophilized pertussis toxin was obtained from List Laboratories. MMP-2, MMP-9, and MMP-12 activities were measured using gelatin-zymography, uPA and MMP-3 activities were measured using casein-zymography, as described previously (Heymans et al. (1999), Nat. Med. 5:1135-42). Samples from gene-deficient mice were used as negative controls. Plasmin activity of BM plasma or cells (pericellular activity) was measured using substrate colorimetry (S2403), as described previously (Heymans et al. (1999), Nat. Med. 5:1135-42). Fibrinolytic activity was measured using a modified fluorescent-based in vitro clot lysis assay (Heymans et al. (1999), Nat. Med. 5:1135-42). Western blotting was performed on non-reduced samples, which were neutralized with a cocktail of protease inhibitors (Complete Inhibitor, Roche). ECM components/fragments were detected with antibodies against mouse fibronectin and laminin (Sigma), and human D1D2D3 and D2D3 (Andolfo et al. (1999), Thromb. Haemost. 88:298-306), secondary HRP-labeled antibodies (DAKO), and ECL detection system (Amersham Pharmacia).
On the technique in general: An ELISA detects its analyte on a solid surface through an enzyme-linked reagent.

Another experiment concerns fibronectin, collagen IV. In words: Immunostaining of BM sections for ECM proteins. As to the method:
Mice were killed via cervical dislocation, femurs were removed, fixed in 2% paraformaldehyde in PBS for 24 hours, and decalcified in EDTA solution. After dehydration and paraffin embedding, 10 μm transverse sections were prepared on Superfrost Plus slides. Immunohistochemistry was performed using antibodies against VWF (DAKO), MMP-9 (Oncogene), tPA, uPA, MMP-2, MMP-3, MMP-12 (Santa Cruz), laminin, fibronectin (Sigma), and collagen IV (kind gift from A. Noel). Analysis was performed on a Zeiss Axioplan2, a 3CCD video camera (DXC-93OP, Sony), and KS300 software.

For the molecule `O=c1[nH]cc(F)c(=O)[nH]1` [5-FU, 5-fluorouracil], the “plasmin activity in BM plasma” value in the experiment on plasmin (after single i.v. bolus, N=4) is listed as 75±14 U. For the same molecule, the “elevation of plasmin activity in BM plasma above baseline” value in the experiment on plasmin (single i.v. bolus) was “five-fold”. The entries for the “elevation of sKitL levels in the BM plasma” value in the experiment on sKitL (seven days after treatment) and with sKitL (ten days after treatment) were 14 fold and 2.5 fold, respectively. Further, the “collagen-IV+ area as % of total area” value in the experiment on fibronectin, collagen IV (5-FU-treated WT mice) is 21±1%; with fibronectin, collagen IV (5-FU-treated uPA−/− mice), 26±1%. Besides, the “fibronectin+ area as % of total area” value turned out to be 9±1% in the experiment with fibronectin, collagen IV (5-FU-treated WT mice) and 14±2% in the experiment on fibronectin, collagen IV (5-FU-treated uPA−/− mice).

Source of the values: patent US8003096B2, “Means and methods for the recruitment and identification of stem cells” (Vlaams Interuniversitair Instituut voor Biotechnologie VZW, priority 2003, dated 2011).
